Assay results published in paper PMC11180795 (Frontiers in Pharmacology, 2024).

Tests used:
[1] = target: T1, 15-lipoxygenase from Glycine max (Glycine max, UniProt P08170); assay: Soybean 15-LOX inhibition assay (ferrous oxidation-xylenol orange); assay type: biochemical; conditions: linoleic acid 140 µM, pH 7.4, 25°C
T1 construct: purchased Sigma (Germany)
T1 sequence (P08170 1-839): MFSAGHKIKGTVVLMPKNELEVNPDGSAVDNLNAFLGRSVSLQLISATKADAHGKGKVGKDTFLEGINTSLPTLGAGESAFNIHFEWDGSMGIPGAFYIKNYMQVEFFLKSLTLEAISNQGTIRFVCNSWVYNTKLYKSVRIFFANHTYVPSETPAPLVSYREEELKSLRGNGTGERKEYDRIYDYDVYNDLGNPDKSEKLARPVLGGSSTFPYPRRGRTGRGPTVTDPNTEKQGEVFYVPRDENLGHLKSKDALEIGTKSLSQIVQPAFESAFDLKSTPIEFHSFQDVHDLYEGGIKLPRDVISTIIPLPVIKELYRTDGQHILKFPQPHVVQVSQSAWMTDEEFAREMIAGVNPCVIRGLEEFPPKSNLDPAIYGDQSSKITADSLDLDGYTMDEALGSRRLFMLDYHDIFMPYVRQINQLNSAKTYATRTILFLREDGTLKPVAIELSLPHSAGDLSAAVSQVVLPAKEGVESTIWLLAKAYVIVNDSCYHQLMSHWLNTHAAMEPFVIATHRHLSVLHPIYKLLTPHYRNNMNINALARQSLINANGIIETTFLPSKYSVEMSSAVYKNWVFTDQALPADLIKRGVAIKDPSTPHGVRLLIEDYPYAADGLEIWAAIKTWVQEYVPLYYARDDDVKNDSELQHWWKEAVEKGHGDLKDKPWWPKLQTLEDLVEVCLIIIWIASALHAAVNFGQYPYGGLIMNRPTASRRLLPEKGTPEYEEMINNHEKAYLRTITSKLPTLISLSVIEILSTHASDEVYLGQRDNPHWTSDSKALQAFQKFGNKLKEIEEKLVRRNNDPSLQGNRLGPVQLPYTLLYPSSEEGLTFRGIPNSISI
Description: The assay was performed according to a previously described procedure ([Pinto et al., 2007]) with slight modifications. The assay is based on measuring the formation of the complex Fe3^+/xylenol orange in a spectrophotometer at 560 nm. 15-LOX from G. max was incubated with compounds or standard inhibitors at 25°C for 5 min. The concentration range of the samples were from 250 μM to 1.95 µM. Then linoleic acid (final concentration, 140 µM) in Tris-HCl buffer (50 mM, pH 7.4) was added and the mixture was incubated at 25°C for 20 min in the dark. The assay was terminated by the addition of 100 µL of FOX reagent consisting of sulfuric acid (30 mM), xylenol orange (100 µM), iron (II) sulfate (100 µM) in methanol/water (9:1). For the control, only LOX solution and buffer were pipetted into the wells. Blanks (background) contained the enzyme LOX during incubation, but the substrate (linoleic acid) was added after the FOX reagent. […] The LOX inhibitory activity was evaluated by calculating the percentage of the inhibition of hydroperoxide production from the changes in absorbance values at 560 nm after 30 min at 25°C. % inhibition = [(Acontrol – Ablank) – (Asample – Ablank)/(Acontrol – Ablank)] x100. Where Acontrol is the absorbance of control well, Ablank is the absorbance of blank well and Asample is the absorbance of sample well.

COX-2 = target: T2, COX-2 (Mus musculus, UniProt Q05769); assay: Fluorometric COX activity assay in lysate of LPS-treated Raw 264.7 cells, COX-2; assay type: cell-based, Murine; conditions: compound at 20 µM, LPS 0.1 μg/mL, 24 h; untreated control 99.85 µU/mg
T2 construct: The cell lysate was centrifuged at 12000 x g for 3 min and the supernatant was collected for COX activity assay; endogenous in cells
T2 sequence (Q05769 18-604): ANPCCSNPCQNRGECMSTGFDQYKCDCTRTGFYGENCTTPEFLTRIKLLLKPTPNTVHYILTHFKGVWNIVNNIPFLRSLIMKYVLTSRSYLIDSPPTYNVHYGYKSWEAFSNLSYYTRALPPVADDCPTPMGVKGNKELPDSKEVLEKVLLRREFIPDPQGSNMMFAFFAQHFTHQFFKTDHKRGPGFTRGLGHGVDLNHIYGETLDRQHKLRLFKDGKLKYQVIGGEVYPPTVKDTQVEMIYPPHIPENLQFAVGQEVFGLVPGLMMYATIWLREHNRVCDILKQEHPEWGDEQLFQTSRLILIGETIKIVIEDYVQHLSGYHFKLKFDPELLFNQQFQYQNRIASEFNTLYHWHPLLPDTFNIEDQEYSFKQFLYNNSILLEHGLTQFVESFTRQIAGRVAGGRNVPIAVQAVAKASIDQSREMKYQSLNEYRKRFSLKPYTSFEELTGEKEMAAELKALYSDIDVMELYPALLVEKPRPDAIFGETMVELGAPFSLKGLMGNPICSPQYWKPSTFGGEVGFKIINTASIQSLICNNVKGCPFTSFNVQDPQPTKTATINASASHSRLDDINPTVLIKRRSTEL
Description: The fluorometric cyclooxygenase activity assay kit (Biovision) was used to evaluate the activity of COX-1 and COX-2 enzymes. Raw 264.7 cells were seeded at 2 × 10^5 cells/mL in a 48-well microplate, and allowed to adhere for 24 h, then treated with LPS 0.1 μg/mL and compounds (1), (5) and (6) at 20 µM against Raw 264.7 cells. After 24 h the cyclooxygenase enzyme (COX-1 and COX-2) activity assay was performed. Cells were detached with TNE buffer (Tris 40 mM, NaCl 150 mM, EDTA 1 mM) and washed with PBS (1x), then re-suspended in 1 mL PBS (1x), transferred into 1.5 mL tube, and centrifuged at 500 x g for 3 min. The pellet was then re-suspended in 0.5 mL of lysis buffer with a protease inhibitor cocktail, vortexed, and incubated at 4°C for 5 min. The cell lysate was centrifuged at 12000 x g for 3 min and the supernatant was collected for COX activity assay. The COX activity was assessed using the fluorometric cyclooxygenase activity assay kit (Biovision) following the manufacturer’s instructions. The assay includes COX-1 and COX-2 specific inhibitors to differentiate the activity of COX-1 and COX-2 as well as other peroxidases. Indomethacin (10 µM) was used as a standard drug and appropriate controls were also included.

TNF-α = assay: Th1/Th2 cytokine measurement (Cytometric Bead Array) in LPS-stimulated Raw 264.7 cells, TNF-α; assay type: cell-based, Murine; conditions: compound at 20 µM; for effect on TNF-α production (in words): vs stimulated and untreated control
Description: Raw 264.7 cells were seeded at 2 × 10^5 cells/mL in a 48-well microplate and allowed to adhere for 24 h, then treated with LPS 0.1 μg/mL and with compounds (1), (5) and (6) at 20 µM. Untreated cells and indomethacin (10 µM) were used as controls. After 24 h of incubation, the supernatant was collected and the amount of pro-inflammatory Th1 cytokines (IFN-γ, TNF-α, and IL-2) and anti-inflammatory Th2 cytokines (IL-4, IL-6, and IL-10) released measured. The experiment was performed according to the manufacturer’s instructions using BD™ Cytometric Bead Array (CBA) […] Th1/Th2 Cytokine Kit (BD-Biosciences), and data were acquired on a BD LSR Fortessa™ cell analyzer flow cytometer.

Structure (SMILES) | IC50 [1] | COX-2 activity (COX-2) | TNF-α level (TNF-α; LPS 0.1 μg/mL, 24 h, stimulated untreated control 4356.86 pg/mL) | effect on TNF-α production (in words) (TNF-α)
CC(C)=CCc1c2c(c3oc4c(O)cccc4c(=O)c3c1O)C=CC(C)(C)O2 [Compound 1, Ananixanthone] | 63.9 µM | 59.33 µU/mg | 3854.61 pg/mL | –
CC(C)=CCC/C(C)=C/C[C@]12C[C@@H](CC=C(C)C)C(C)(C)[C@](C/C=C(\C)CCC=C(C)C)(C(=O)C(C(=O)c3ccc(O)c(O)c3)=C1O)C2=O [Compound 5, Guttiferone O] | 45 µM | 88.10 µU/mg | – | significantly reduces
CC(C)=CCC/C(C)=C/C[C@]12C[C@@H](CC=C(C)C)C(C)(C)[C@](CC=C(C)C)(C(=O)C(C(=O)c3ccc(O)c(O)c3)=C1O)C2=O [Compound 6, Guttiferone M] | 53 µM | 43.84 µU/mg | – | moderate decrease
